Measured values as given in the supplement of paper PMC11208160.

Test: recombinant barcode read abundance after kanamycin selection (control-corrected) (log10(CPM+1)); higher = more efficient recombination; sequences stand for … in AGTGCAGAGAAAATCGGCCAGTTTTCTCTGCCTGCAGTCCGCATGCCGT…AGATTTATGCAGCGGACTGCCTTTCTCCCAAAGTGATAAACCGGACAGTATCATGGACCGGTTTTCCCGGTAATCCGTATTTGCAAGGTTGGTTTCACT; site = the 11-nt target
In short: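 Values are log10(CPM+1) from a pooled E. coli screen of targets paired with IS621 bridge RNA target-binding loops. Recombination efficiency here means counts per million of recombinant-junction barcodes, averaged and control-corrected. Plates were chloramphenicol/ampicillin LB agar for the control and chloramphenicol/ampicillin/kanamycin with 0.1 mM IPTG, two replicates each.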
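Also: IS621 recombinase and bridge RNA in Escherichia coli cells.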

| Sequence | recombinant barcode read abundance (log10) |
| --- | --- |
| GACCACTCTTGGGTTCTAACCTGTTGCCT (site GACCACTCTAG) | 2.39 |
| GACCACTCTTGGGTTCTAACCTGTTGCCT (site TACCACTCTAG) | 1.42 |
| GACCAGCCTTGGGTTCTAACCTGTTGCAT (site GACCAGCCTAA) | 0.106 |
| GACCAGCCTTGGGTTCTAACCTGTTGCAT (site GACCAGCCTAC) | 0.74 |
| GACCAGCCTTGGGTTCTAACCTGTTGCAT (site GACCAGCCTAG) | 0.466 |
| GACCAGCCTTGGGTTCTAACCTGTTGCAT (site GACCAGCCTAT) | 1.82 |
| GACCAGCCTTGGGTTCTAACCTGTTGCGT (site GACCAGCCTAA) | 0.104 |
| GACCAGCCTTGGGTTCTAACCTGTTGCGT (site GACCAGCCTAC) | 2.4 |
| GACCAGCCTTGGGTTCTAACCTGTTGCGT (site GACCAGCCTAG) | 0.266 |
| GACCAGCCTTGGGTTCTAACCTGTTGCGT (site GACCAGCCTAT) | 1.32 |
| GACCAGCCTTGGGTTCTAACCTGTTGCTT (site GACCAGCCTAA) | 1.59 |
| GACCAGCCTTGGGTTCTAACCTGTTGCTT (site GACCAGCCTAC) | 0.994 |
| GACCAGCCTTGGGTTCTAACCTGTTGCTT (site GACCAGCCTAG) | 1.29 |
| GACCAGCCTTGGGTTCTAACCTGTTGCTT (site GACCAGCCTAT) | 0.746 |
| GACCCACCTTGGGTTCTAACCTGTTGCCT (site AACCCACCTAG) | 1.64 |
| GACCCACCTTGGGTTCTAACCTGTTGCCT (site CACCCACCTAG) | 0.814 |
| GACCCACCTTGGGTTCTAACCTGTTGCCT (site GACCCACCTAG) | 1.76 |
| GACCCACCTTGGGTTCTAACCTGTTGCCT (site TACCCACCTAG) | 1.4 |
| GACCCATCTTGGGTTCTAACCTGTTGCCT (site GACACAACTAG) | 0.0316 |
| GACCCATCTTGGGTTCTAACCTGTTGCCT (site GACCCATCTAG) | 0.683 |
| GACCGCGCTTGGGTTCTAACCTGTTGCCT (site GACCGAGCTAG) | 0.672 |
| GACCGCGCTTGGGTTCTAACCTGTTGCCT (site GACCGCGCTAG) | 1.05 |

| Sequence | recombinant barcode read abundance (log10) |
| --- | --- |
| GACCGCGCTTGGGTTCTAACCTGTTGCCT (site GACCGGGCTAG) | 0.0432 |
| GACCGCGCTTGGGTTCTAACCTGTTGCCT (site GACCGTGCTAG) | 0.0542 |
| GACCGGACTTGGGTTCTAACCTGTTGCGT (site GACCGGACTAC) | 2.44 |
| GACCGGACTTGGGTTCTAACCTGTTGCGT (site GAGTGGACTAC) | 0.0356 |
| GACGAAGCTTGGGTTCTAACCTGTTGCCT (site GACGAAGCTAG) | 0.348 |
| GACGAAGCTTGGGTTCTAACCTGTTGCCT (site TCCGAAGCTAG) | 0.0613 |
| GACGATCCTTGGGTTCTAACCTGTTGCAT (site GACGATCCTAT) | 0.547 |
| GACGATCCTTGGGTTCTAACCTGTTGCAT (site GGCGAACCTAT) | 0.077 |
| GACGATCCTTGGGTTCTAACCTGTTGCCT (site GACGATCCTAG) | 0.66 |
| GACGATCCTTGGGTTCTAACCTGTTGCCT (site GCCGATCCTAG) | 0.0719 |
| GACGATCCTTGGGTTCTAACCTGTTGCCT (site GGCGATCCTAG) | 0.255 |
| GACGATCCTTGGGTTCTAACCTGTTGCCT (site GTCGATCCTAG) | 0.0852 |
| GACGCGGCTTGGGTTCTAACCTGTTGCCT (site GACGCGGCTAG) | 0.184 |
| GACGCGGCTTGGGTTCTAACCTGTTGCCT (site TTGCGAACTCT) | 0.059 |
| GACGGTCCTTGGGTTCTAACCTGTTGCGG (site GACGGTCCTCC) | 2.15 |
| GACGGTCCTTGGGTTCTAACCTGTTGCGG (site GATGGTCCTCC) | 0.418 |
| GACGTGTCTTGGGTTCTAACCTGTTGCCG (site GACGTGTCTCG) | 0.408 |
| GACGTGTCTTGGGTTCTAACCTGTTGCCG (site GGCGTGTCTCC) | 0.0409 |
| GACGTGTCTTGGGTTCTAACCTGTTGCGT (site AGTCATACTTG) | 0 |
| GACGTGTCTTGGGTTCTAACCTGTTGCGT (site GACGTGTCTAC) | 2.47 |
| GACTCATCTTGGGTTCTAACCTGTTGCGG (site GACTCATCTCC) | 0.151 |
| GACTCATCTTGGGTTCTAACCTGTTGCGG (site GACTTGTCTCC) | 0.11 |

| Sequence | recombinant barcode read abundance (log10) |
| --- | --- |
| GACTCTCCTTGGGTTCTAACCTGTTGCTG (site GACTCTCCTCA) | 0.146 |
| GACTCTCCTTGGGTTCTAACCTGTTGCTG (site GACTCTCCTCT) | 0.0367 |
| GACTGAGCTTGGGTTCTAACCTGTTGCGT (site GACTGAGCTAC) | 2.58 |
| GACTGAGCTTGGGTTCTAACCTGTTGCGT (site GGCTGAGCTAG) | 0.236 |
| GACTGCCCTTGGGTTCTAACCTGTTGCGG (site GACTGCCCTCC) | 1.54 |
| GACTGCCCTTGGGTTCTAACCTGTTGCGG (site GGCGGCCCTCC) | 0.137 |
| GACTTACCTTGGGTTCTAACCTGTTGCAT (site GACTTACCTAT) | 1.18 |
| GACTTACCTTGGGTTCTAACCTGTTGCAT (site GACTTCCCTAT) | 0.216 |
| GACTTACCTTGGGTTCTAACCTGTTGCAT (site GACTTGCCTAT) | 0.135 |
| GACTTACCTTGGGTTCTAACCTGTTGCAT (site GACTTTCCTAT) | 0.124 |
| GACTTCCCTTGGGTTCTAACCTGTTGCAT (site GACTTACCTAT) | 0.352 |
| GACTTCCCTTGGGTTCTAACCTGTTGCAT (site GACTTCCCTAT) | 1.45 |
| GACTTCCCTTGGGTTCTAACCTGTTGCAT (site GACTTGCCTAT) | 0.0893 |
| GACTTCCCTTGGGTTCTAACCTGTTGCAT (site GACTTTCCTAT) | 0.0857 |
| GACTTGCCTTGGGTTCTAACCTGTTGCCT (site GACTTGACTAG) | 0.023 |
| GACTTGCCTTGGGTTCTAACCTGTTGCCT (site GACTTGCCTAG) | 0.816 |
| GACTTGCCTTGGGTTCTAACCTGTTGCCT (site GACTTGGCTAG) | 0.394 |
| GACTTGCCTTGGGTTCTAACCTGTTGCCT (site GACTTGTCTAG) | 0.217 |
| GACTTGTCTTGGGTTCTAACCTGTTGCGG (site GACTCATCTCC) | 0 |
| GACTTGTCTTGGGTTCTAACCTGTTGCGG (site GACTTGTCTCC) | 1.59 |
| GACTTTACTTGGGTTCTAACCTGTTGCCT (site GACGTTGCTAG) | 0.00775 |
| GACTTTACTTGGGTTCTAACCTGTTGCCT (site GACTTTACTAG) | 0.0133 |
